Measurements from patent US12268723B2, “Peptidomimetics for the treatment of coronavirus and picorna virus infections” (priority 2019, dated 2025).
Read-outs that look alike come from different tables or passages of the source.

Key:
HCoV (OC43) = assay: In vitro assay for HCoV (OC43), virus yield reduction in Huh7 cells; assay type: cell-based; conditions: for inhibition at 10 µM: Betacoronavirus 1, OC43, Huh-7, 10 μM
Text: In order to determine the potential effect of each selected compound against in vitro replication of SARS-CoV-2 in Vero cells or HCoV (OC43) in Huh7 cells, a confluent cell monolayer in a 96-wells cell culture microplate can be infected at a multiplicity of infection (MOI) of 0.1 and treated with a maximum non-toxic concentration (MNTC) of each compound. To assess the antiviral activity, a virus yield reduction assay using specific qRT-PCR for each virus can be performed.
Dose-Dependent Antiviral Assay. The antiviral effect of each compound selected through the antiviral evaluation assay can be further confirmed by virus yield reduction assay using the optimized qRT-PCR by measuring the RNA copy number for each virus in the supernatant of treated-infected cells. A positive control, such as remdesivir, can be used for each assay.
Statistical analysis. The half-maximal effective concentration (EC50) and the concentration with 90% of inhibitory effect (EC90) can be calculated using GraphPad PRISM for Windows, version 5 (GraphPad Software Inc., San Diego, CA, 2005) or the Chou and Talalay Method.
These methods were used to evaluate certain of the compounds described herein.

SARS-CoV-2 = assay: microbe, parasite or virus in culture; assay type: cell-based; conditions: for inhibition at 10 µM: Severe acute respiratory syndrome coronavirus 2, Vero, read-out: SARS-CoV-2 Inhibition at 10 μM (%); for EC50 / EC90: Severe acute respiratory syndrome coronavirus 2, unit inferred; for EC50: read-out: Activity against SARS-CoV-2 EC50; for EC90: read-out: Activity against SARS-CoV-2 EC90
[1] = Cytotoxicity (MTS) in RD cells; assay type: cell-based, human; conditions: human, RD (rhabdomyosarcoma) cells
Method: Compounds are tested for cytotoxicity using a MTS (3-(4,5-dimethylthiazol-2-yl)-5-(3-carboxymethoxyphenyl)-2-(4-sulfophenyl)-2H-tetrazolium) method and the CC50 (IC50) values (cytotoxic concentrations of drug required to reduce cell viability by 50%) are determined for each test compound in human rhabdomyosarcoma (RD) cell line. In addition, the maximum non-toxic concentrations (MNTC) are also determined for each compound. To avoid potential drug toxicity that would interfere with viral cytopathic effect (CPE), compounds are evaluated at nontoxic concentrations. The resultant inhibitory effect of each test compound is calculated as a percentage of decrease in EV-71 CPE. Briefly, a monolayer of RD cells is prepared in a 96-well plates. The cells are then infected with 1 MOI of EV-71 (BrCr strain) followed by treatment with a single non-toxic dose of each compound in triplicate. The vehicle control wells are treated with 0.1% DMSO diluted in the working media. […] The dose-response antiviral activity of each compound is determined by a virus yield reduction assay method. Briefly, confluent monolayers of RD cells in 96-wells microplate are infected with 0.1 MOI of EV-71 followed by treatment with compounds. […] Quantitative PCR measurement was performed using StepOnePlus real time PCR system ([…]) according to manufacturer's protocol.

[2] = system: Enterovirus EV-71 (BrCr strain); assay: Anti-enterovirus activity, EV-71 virus yield reduction (qRT-PCR) in RD cells; assay type: cell-based; conditions: for EC50 / EC90: 0.1 MOI, 2 days post-treatment; for EC50: read-out: EC50 against Enterovirus EV-71 (BrCr strain); for EC90: read-out: EC90 against Enterovirus EV-71 (BrCr strain); for IC50: given as IC50, read-out: IC50 against Enterovirus EV-71 (BrCr strain); for IC90: given as IC90, read-out: IC90 against Enterovirus EV-71 (BrCr strain)
Method: Compounds are tested for cytotoxicity using a MTS (3-(4,5-dimethylthiazol-2-yl)-5-(3-carboxymethoxyphenyl)-2-(4-sulfophenyl)-2H-tetrazolium) method and the CC50 (IC50) values (cytotoxic concentrations of drug required to reduce cell viability by 50%) are determined for each test compound in human rhabdomyosarcoma (RD) cell line. In addition, the maximum non-toxic concentrations (MNTC) are also determined for each compound. To avoid potential drug toxicity that would interfere with viral cytopathic effect (CPE), compounds are evaluated at nontoxic concentrations. The resultant inhibitory effect of each test compound is calculated as a percentage of decrease in EV-71 CPE. Briefly, a monolayer of RD cells is prepared in a 96-well plates. The cells are then infected with 1 MOI of EV-71 (BrCr strain) followed by treatment with a single non-toxic dose of each compound in triplicate. The vehicle control wells are treated with 0.1% DMSO diluted in the working media. The plate is then incubated for 48 h at which time the virus-control wells produced detectable CPE. To determine the probable CPE inhibitory effect of test compounds, an MTS assay is performed and effective compounds are chosen for further studies to identify the potency of the compounds and their concentration-dependent manner. The dose-response antiviral activity of each compound is determined by a virus yield reduction assay method. Briefly, confluent monolayers of RD cells in 96-wells microplate are infected with 0.1 MOI of EV-71 followed by treatment with compounds. Effective compounds are further quantified and confirmed with a virus-yield-reduction assay using an optimized in house qRT-PCR to determine the EV-71 RNA copy number after 2 days post-treatment from collected supernatants. qRT-PCR is performed using the EV-71 specific probe/primer mix and qScript-Tough master mix (Quantibio, USA). Quantitative PCR measurement was performed using StepOnePlus real time PCR system ([…]) according to manufacturer's protocol. The median effective concentration (EC50) and the concentration with 90% of inhibitory effect (EC90) are calculated using GraphPad PRISM for Windows, version 5 (GraphPad Software Inc., San Diego, CA, 2005) as the means±standard deviation (SD) of the mean from triplicate assay from three independent experiments.

| SMILES | CC50 [1] [nM] | EC50 ([2]; RD, 48 h) [nM] | EC90 ([2]; RD, 48 h) [nM] | also measured |
| --- | --- | --- | --- | --- |
| CCOC(=O)/C=C/[C@H](C[C@@H]1CCCNC1=O)NC(=O)C(CC(C)C)NC(=O)[C@H](Cc1cccc2ccccc12)NC(=O)c1cc(C)on1 (stereo partly shown) [Compound 44] |  |  |  | inhibition at 10 µM (HCoV (OC43)): 99.7%; inhibition at 10 µM (SARS-CoV-2): 99.5% |
| CC(C)C[C@H](NC(=O)[C@H](Cc1ccc(O)cc1)NC(=O)OCc1ccccc1)C(=O)N[C@H](C=O)C[C@@H]1CCCNC1=O | > 100000 | 190 | 360 |  |
| CC(C)C[C@H](NC(=O)[C@H](Cc1ccc(F)cc1)NC(=O)OCc1ccccc1)C(=O)N[C@H](C=O)C[C@@H]1CCNC1=O | > 100000 | 30 | 60 |  |
| CC(C)C[C@H](NC(=O)[C@H](Cc1cccc2ccccc12)NC(=O)OCc1ccccc1)C(=O)N[C@@H](C[C@@H]1CCCNC1=O)C(O)S(=O)(=O)O (stereo partly drawn) [Compound 37, Sodium (5S,8S, 11S)-12-hydroxy-8-isobutyl-5-(naphthalen-1-ylmethyl)-3,6,9-trioxo-11-(((S)-2-oxopiperidin-3-yl)methyl)-1-phenyl-2-oxa-4,7,10-triazadodecane-12-sulfonate] |  |  |  | inhibition at 10 µM (HCoV (OC43)): 99.9%; inhibition at 10 µM (SARS-CoV-2): 99.9%; EC50 (SARS-CoV-2; Vero cells): 300 nM; EC90 (SARS-CoV-2; Vero cells): 4500 nM |
| CC(C)C[C@H](NC(=O)[C@H](Cc1cccc2ccccc12)NC(=O)OCc1ccccc1)C(=O)N[C@@H](C[C@@H]1CCCNC1=O)[C@H](O)C#N [Compound 129, benzyl ((S)-1-(((S)-1-(((1S,2S)-1-cyano-1-hydroxy-3-((S)-2-oxopiperidin-3-yl)propan-2-yl)amino)-4-methyl-1-oxopentan-2-yl)amino)-3-(naphthalen-1-yl)-1-oxopropan-2-yl)carbamate] |  |  |  | OC43 Inhibition at 10 μM (%) (HCoV (OC43); 10 μM): 99.9%; SARS-CoV-2 Inhibition at 10 μM (%) (SARS-CoV-2; 10 μM, Vero cells): 99.9% |
| CC(C)C[C@H](NC(=O)[C@H](Cc1cccc2ccccc12)NC(=O)OCc1ccccc1)C(=O)N[C@@H](C[C@@H]1CCCNC1=O)C(O)S(=O)(=O)O (stereo partly shown) [drawing 134] | 95000 |  |  | IC50 [2]: 11.8 nM; IC90 [2]: 30 nM |
| CC(C)C[C@H](NC(=O)[C@@H](Cc1cccc2ccccc12)NC(=O)OCc1ccccc1)C(=O)N[C@H](C=O)C[C@@H]1CCCNC1=O | 32500 |  |  | IC50 [2]: 8.8 nM; IC90 [2]: 30 nM |
| CC(C)C[C@H](NC(=O)[C@H](Cc1cccc2ccccc12)NC(=O)OCc1ccccc1)C(=O)N[C@@H](CC1CCNC1=O)[C@H]1O[C@@H]1S(C)(=O)=O (stereo partly shown) | > 100000 | 1440 | 5020 |  |
| CC(C)C[C@H](NC(=O)[C@H](Cc1ccc(F)cc1)NC(=O)OCc1ccccc1)C(=O)N[C@H](C=O)C[C@@H]1CCCNC1=O [drawing 135] | > 100000 |  |  | IC50 [2]: 10.3 nM; IC90 [2]: 29.1 nM |
| CC(C)C[C@H](NC(=O)[C@H](Cc1cccc2ccccc12)NC(=O)OCc1ccccc1)C(=O)N[C@H](C=O)C[C@@H]1CCNC1=O | > 100000 | 90 | 260 |  |
| CC(C)C[C@H](NC(=O)[C@H](Cc1ccc(O)cc1)NC(=O)OCc1ccccc1)C(=O)N[C@H](C=O)CC1CCNC1=O (stereo partly shown) |  | 2300 | 4800 | CC50 ([1]; unit inferred): > 100000 nM |
| CC(C)C[C@H](NC(=O)[C@H](Cc1cccc2ccccc12)NC(=O)OCc1ccccc1)C(=O)N[C@@H](C[C@@H]1CCCNC1=O)C(O)C(F)(F)F (stereo partly shown) [drawing 125] | 25000 | 310 | 580 |  |
| CC(C)C[C@H](NC(=O)[C@H](Cc1cccc2ccccc12)NC(=O)c1cnccn1)C(=O)N[C@H](C=O)C[C@@H]1CCCNC1=O | > 100000 | 15.8 | 47.5 |  |
| CC(C)C[C@H](NC(=O)OCc1ccccc1)C(=O)NC(C=O)C[C@@H]1CCCNC1=O (stereo partly shown) | > 100000 | 50 | 130 |  |
| Cc1cc(C(=O)N[C@@H](Cc2cccc3ccccc23)C(=O)N[C@@H](CC(C)C)C(=O)N[C@H](C=O)C[C@@H]2CCCNC2=O)no1 [Compound 91, 5-Methyl-N—((S)-1-(((S)-4-methyl-1-oxo-1-(((S)-1-oxo-3-((S)-2-oxopiperidin-3-yl)propan-2-yl)amino)pentan-2-yl)amino)-3-(naphthalen-1-yl)-1-oxopropan-2-yl)isoxazole-3-carboxamide] |  |  |  | EC50 (SARS-CoV-2; Vero cells): 600 nM; EC90 (SARS-CoV-2; Vero cells): 2300 nM |
| CC(C)C[C@H](NC(=O)[C@H](Cc1ccc(F)cc1)NC(=O)c1cnccn1)C(=O)N[C@H](C=O)C[C@@H]1CCCNC1=O | > 100000 | 280 | 570 |  |
| Cc1cc(C(=O)N[C@@H](Cc2ccc(F)cc2)C(=O)N[C@@H](CC(C)C)C(=O)N[C@H](C=O)C[C@@H]2CCCNC2=O)no1 | > 100000 | 9.4 | 16.6 |  |
| CC(C)C[C@H](NC(=O)[C@H](Cc1cccc2ccccc12)NC(=O)c1cnccn1)C(=O)N[C@H](C=O)C[C@@H]1CCNC1=O | > 100000 |  |  | IC50 [2]: 17.2 nM; IC90 [2]: 64 nM |
| Cc1cc(C(=O)N[C@@H](CC(C)C)C(=O)N[C@H](C=O)C[C@@H]2CCCNC2=O)no1 | > 100000 | 1100 | 4000 |  |
| Cc1cc(C(=O)N[C@@H](Cc2cccc3ccccc23)C(=O)N[C@@H](CC(C)C)C(=O)NC(C=O)C[C@@H]2CCCNC2=O)no1 (single isomer, unassigned) | > 100000 |  |  | EC50 [2]: 1.7 nM; EC90 [2]: 7.5 nM |
| CC(C)C[C@H](NC(=O)[C@H](Cc1cccc2ccccc12)NC(=O)OCCc1ccccc1)C(=O)N[C@H](C=O)C[C@@H]1CCNC1=O | 42500 | 750 | 2110 |  |
| COC(=O)C1O[C@@H]1[C@H](C[C@@H]1CCNC1=O)NC(=O)[C@H](CC(C)C)NC(=O)[C@H](Cc1cccc2ccccc12)NC(=O)OCc1ccccc1 (stereo partly shown) | 80200 | 190 | 360 |  |
| CC(C)C[C@H](NC(=O)[C@H](Cc1cccc2ccccc12)NC(=O)OCc1ccccc1)C(=O)N[C@@H](C[C@@H]1CCCNC1=O)C(=O)C(F)(F)F [drawing 122] | 65000 | 320 | 580 |  |
| CC(C)C[C@H](NC(=O)[C@H](Cc1ccc(F)cc1)NC(=O)c1cnccn1)C(=O)N[C@H](C=O)C[C@@H]1CCNC1=O | > 100000 |  |  | IC50 [2]: 90 nM; IC90 [2]: 570 nM |
